Measurements reported in patent EP4578856A1, “HETEROCYCLIC COMPOUND” (Ubience Inc., priority 2022, dated 2024).

Target: ROCK2 protein (Homo sapiens, UniProt O75116)
Assay: Degradation inducing activity of ROCK2 protein in HUVEC cells, Western blotting (Simple Western JESS)
Assay type: cell-based
Design: endogenous in cells; host or cells: HUVEC (ATCC CRL-1730)
Settings: HUVEC, 24 h; for inhibition at 1 µM: degradation rate at 1 µM; for inhibition at 10 µM: degradation rate at 10 µM
Experimental: In vitro degradation inducing activity of ROCK2 protein of compounds of Examples was evaluated by Western Blotting (WB).
By a test compound, 10 mM DMSO solution was prepared, which was used as a 10 µM test compound solution. Further, the solution was diluted 10-fold with DMSO to prepare a 1 mM solution, which was used as a 1 µM test compound solution.
HUVEC cells (ATCC: CRL-1730, Lot: 70041472) were cultured in F-12K medium supplemented with 10% FBS, 0.1 mg/mL heparin, […] Endothelial Cell Growth Supplement (ECGS, Corning), and 1% Penicillin/Streptomycin. The HUVEC cells seeded in a 24 well plate at 50,000 cells/well/1 mL were cultured for 24 hours, and then 1 µL of DMSO or a test compound solution was added thereto and treatment was performed for 24 hours. Cells were harvested and lysed for 20 minutes on ice using lysis buffer (Cell Signaling Technology, Cat#9803) supplemented with protease inhibitor cocktail (Sigma, Cat#P8340; Roche, Cat#P11873580001), and phosphatase inhibitor cocktail (Sigma, Cat#P5726, P0044). The lysate was sonicated (15 seconds, amplitude 30%, 1 cycle) and then centrifuged at 12500 rpm for 15 minutes at 4°C. The protein concentration was determined by BCA assay kit (Thermo Fisher Scientific, Cat#23225).
The western blotting was performed using Simple Western JESS (protein simple). A cell lysis sample (protein amount; about 1.06 µg) was loaded on a plate of Simple Western JESS, and the expression level of ROCK2 protein was detected using a 12-230 kDa Wes Separation Module (Protein simple, Cat#SM-WO04), an Anti-Rabbit Detection Module for Wes (Protein simple, Cat#DM-001), and a Total Protein Detection Module for Wes (Protein simple, Cat#DM-TP01). As the primary antibody, a material obtained by diluting ROCK2 (D1B1) Rabbit mAb (Cell Signaling Technology, Cat#9029) at 1:10 was used, and as the secondary antibody, a material obtained by diluting HRP-labeled anti-rabbit IgG antibody (Cell Signaling Technology, Cat#7074S) at 1:100 was used. The expression level of the target protein was standardized using the total protein amount loaded as a reference. The standardized expression level data of the control (DMSO) was taken as 100%, and the degradation rate (%) was calculated from the average standardized expression level data of the test compound. All analysis steps, such as data detection and analysis, are fully automated.
With respect to the ROCK2 protein degradation rate of the test compound, the protein degradation rates (%) at the evaluation concentrations were set to A ≥ 75%, 75% > B ≥ 50%, 50% > C ≥ 25%, and D < 25%, and are shown in Table 7.

Chain of ROCK2 protein (O75116 whole entry): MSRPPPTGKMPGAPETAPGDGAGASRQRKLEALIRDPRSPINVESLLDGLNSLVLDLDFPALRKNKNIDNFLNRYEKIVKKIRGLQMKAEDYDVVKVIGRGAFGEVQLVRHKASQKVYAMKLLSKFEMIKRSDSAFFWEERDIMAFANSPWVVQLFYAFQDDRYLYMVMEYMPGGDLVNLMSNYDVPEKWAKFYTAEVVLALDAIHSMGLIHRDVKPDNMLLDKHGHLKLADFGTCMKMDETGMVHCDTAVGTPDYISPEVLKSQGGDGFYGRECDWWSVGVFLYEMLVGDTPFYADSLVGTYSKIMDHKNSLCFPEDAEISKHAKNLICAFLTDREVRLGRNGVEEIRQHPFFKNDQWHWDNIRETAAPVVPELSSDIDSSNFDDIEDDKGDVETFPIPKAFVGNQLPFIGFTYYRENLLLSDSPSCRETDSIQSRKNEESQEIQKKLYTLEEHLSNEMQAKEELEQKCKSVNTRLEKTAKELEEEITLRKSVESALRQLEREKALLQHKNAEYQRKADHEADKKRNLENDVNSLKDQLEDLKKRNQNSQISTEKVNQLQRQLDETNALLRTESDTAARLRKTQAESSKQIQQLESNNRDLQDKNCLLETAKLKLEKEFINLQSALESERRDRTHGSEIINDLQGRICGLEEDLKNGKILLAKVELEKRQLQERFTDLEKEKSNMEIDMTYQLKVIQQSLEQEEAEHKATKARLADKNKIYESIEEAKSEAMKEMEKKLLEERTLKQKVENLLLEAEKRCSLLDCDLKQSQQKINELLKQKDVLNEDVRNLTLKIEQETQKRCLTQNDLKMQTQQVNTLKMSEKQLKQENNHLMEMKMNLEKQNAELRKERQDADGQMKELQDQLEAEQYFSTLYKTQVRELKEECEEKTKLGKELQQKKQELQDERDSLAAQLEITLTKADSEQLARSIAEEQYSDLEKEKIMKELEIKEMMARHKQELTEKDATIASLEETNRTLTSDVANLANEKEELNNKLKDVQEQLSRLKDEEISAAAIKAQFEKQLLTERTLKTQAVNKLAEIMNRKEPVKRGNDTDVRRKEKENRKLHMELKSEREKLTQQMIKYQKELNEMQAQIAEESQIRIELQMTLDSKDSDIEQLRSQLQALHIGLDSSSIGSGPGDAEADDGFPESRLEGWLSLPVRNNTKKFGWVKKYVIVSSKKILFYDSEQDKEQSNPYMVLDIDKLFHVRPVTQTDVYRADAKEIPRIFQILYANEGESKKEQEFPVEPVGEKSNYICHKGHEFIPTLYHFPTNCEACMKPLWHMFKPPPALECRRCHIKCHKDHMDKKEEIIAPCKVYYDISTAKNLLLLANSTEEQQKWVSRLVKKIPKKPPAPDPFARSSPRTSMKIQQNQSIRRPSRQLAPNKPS

Structure (SMILES)	inhibition at 1 µM	inhibition at 10 µM
C[C@@H]1CN(CC(=O)N2CC(C)(C)c3ncc(Cc4ccc(F)cc4)cc32)[C@@H](CN(C)CCOCCOCCOCCOCCOCCOCCN[C@H](C)c2ccc(C(=O)Nc3ccncc3)cc2)CN1 [Example 6, 4-((R)-1-((2R,5R)-1-(2-(6-(4-Fluorobenzyl)-3,3-dimethyl-2,3-dihydro-1H-pyrrolo[3,2-b]pyridin-1-yl)-2-oxoethyl)-5-methylpiperazin-2-yl)-2-methyl-5,8,11,14,17,20-hexaoxa-2,23-diazapentacosan-24-yl)-N-(pyridin-4-yl)benzamide]	50 to 75%	≥ 75%
COC[C@H]1CN[C@H](C)CN1CC(=O)N1CC(C)(C)c2ncc(Cc3ccccc3OCCOCCOCCOCCN[C@H](Cc3cccc(F)c3)C(=O)Nc3ccc(-c4ccncc4)cc3)cc21 [Example 73, (R)-2-(3-Fluorobenzyl)-14-(2-((1-(2-((2R,5R)-2-(methoxymethyl)-5-methylpiperazin-1-yl)acetyl)-3,3-dimethyl-2,3-dihydro-1H-pyrrolo[3,2-b]pyridin-6-yl)methyl)phenoxy)-N-(4-(pyridin-4-yl)phenyl)-6,9,12-trioxa-3-azatetradecanamide]	< 25%	≥ 75%
COC[C@H]1CN[C@H](C)CN1CC(=O)N1CC(C)(C)c2ncc(Cc3ccccc3OCCOCCN[C@H](Cc3cccc(F)c3)C(=O)Nc3ccc(-c4ccncc4)cc3)cc21 [Example 71, (R)-3-(3-Fluorophenyl)-2-((2-(2-(2-((1-(2-((2R,5R)-2-(methoxymethyl)-5-methylpiperazin-1-yl)acetyl)-3,3-dimethyl-2,3-dihydro-1H-pyrrolo[3,2-b]pyridin-6-yl)methyl)phenoxy)ethoxy)ethyl)amino)-N-(4-(pyridin-4-yl)phenyl)propanamide]	25 to 50%	< 25%
C[C@@H]1CN(CC(=O)N2CC(C)(C)c3ncc(Cc4ccc(F)cc4)cc32)[C@@H](CN(C)CCOCCOCCOCCOCCOCCN[C@H](C)c2ccc(C(=O)Nc3ccncc3)cc2)CN1 [Example 5, 4-((R)-1-((2R,5R)-1-(2-(6-(4-Fluorobenzyl)-3,3-dimethyl-2,3-dihydro-1H-pyrrolo[3,2-b]pyridin-1-yl)-2-oxoethyl)-5-methylpiperazin-2-yl)-2-methyl-5,8,11,14,17-pentaoxa-2,20-diazadocosan-21-yl)-N-(pyridin-4-yl)benzamide]	25 to 50%	< 25%
COC[C@H]1CN[C@H](C)CN1CC(=O)N1CC(C)(C)c2ncc(Cc3ccccc3OCCOCCOCCOCCOCCN[C@H](Cc3cccc(F)c3)C(=O)Nc3ccc(-c4ccncc4)cc3)cc21 [Example 74, (R)-2-(3-Fluorobenzyl)-17-(2-((1-(2-((2R,5R)-2-(methoxymethyl)-5-methylpiperazin-1-yl)acetyl)-3,3-dimethyl-2,3-dihydro-1H-pyrrolo[3,2-b]pyridin-6-yl)methyl)phenoxy)-N-(4-(pyridin-4-yl)phenyl)-6,9,12,15-tetraoxa-3-azaheptadecanamide]	< 25%	50 to 75%
C[C@@H]1CN(CC(=O)N2CC(C)(C)c3ncc(Cc4ccc(F)cc4)cc32)[C@@H](CN(C)CCOCCOCCOCCOCCNC[C@@H](C(=O)Nc2ccc3cnccc3c2)c2ccccc2)CN1 [Example 18, (S)-1-((2R,5R)-1-(2-(6-(4-Fluorobenzyl)-3,3-dimethyl-2,3-dihydro-1H-pyrrolo[3,2-b]pyridin-1-yl)-2-oxoethyl)-5-methylpiperazin-2-yl)-N-(isoquinolin-6-yl)-2-methyl-19-phenyl-5,8,11,14-tetraoxa-2,17-diazaicosan-20-amide]	≥ 75%	≥ 75%
C[C@@H]1CN(CC(=O)N2CC(C)(C)c3ncc(Cc4ccc(F)cc4)cc32)[C@@H](CN(C)CCOCCN[C@H](C)c2ccc(C(=O)Nc3ccncc3)cc2)CN1 [Example 1, 4-((R)-1-((2-(2-((((2R,5R)-1-(2-(6-(4-Fluorobenzyl)-3,3-dimethyl-2,3-dihydro-1H-pyrrolo[3,2-b]pyridin-1-yl)-2-oxoethyl)-5-methylpiperazin-2-yl)methyl)(methyl)amino)ethoxy)ethyl)amino)ethyl)-N-(pyridin-4-yl)benzamide]	25 to 50%	≥ 75%
C[C@@H]1CN(CC(=O)N2CC(C)(C)c3ncc(Cc4ccc(F)cc4)cc32)[C@@H](CN(C)CCOCCOCCOCCOCCOCCNC[C@@H](C(=O)Nc2ccc3cnccc3c2)c2ccccc2)CN1 [Example 19, (S)-1-((2R,5R)-1-(2-(6-(4-Fluorobenzyl)-3,3-dimethyl-2,3-dihydro-1H-pyrrolo[3,2-b]pyridin-1-yl)-2-oxoethyl)-5-methylpiperazin-2-yl)-N-(isoquinolin-6-yl)-2-methyl-22-phenyl-5,8,11,14,17-pentaoxa-2,20-diazatricosan-23-amide]	25 to 50%	≥ 75%
COC[C@H]1CN[C@H](C)CN1CC(=O)N1CC(C)(C)c2ncc(Cc3cccc(OCCOCCNC[C@@H](C(=O)Nc4ccc5cnccc5c4)c4ccccc4)c3)cc21 [Example 57, (S)-N-(Isoquinolin-6-yl)-3-((2-(2-(3-((1-(2-((2R,5R)-2-(methoxymethyl)-5-methylpiperazin-1-yl)acetyl)-3,3-dimethyl-2,3-dihydro-1H-pyrrolo[3,2-b]pyridin-6-yl)methyl)phenoxy)ethoxy)ethyl)amino)-2-phenylpropanamide]	25 to 50%	≥ 75%
COC[C@H]1CN[C@H](C)CN1CC(=O)N1CC(C)(C)c2nc(CN(C)CCOCCOCCOCCOCCNC[C@@H](C(=O)Nc3ccc4cnccc4c3)c3ccccc3)c(Cc3ccc(F)cc3)cc21 [Example 39, (S)-1-(6-(4-Fluorobenzyl)-1-(2-((2R,5R)-2-(methoxymethyl)-5-methylpiperazin-1-yl)acetyl)-3,3-dimethyl-2,3-dihydro-1H-pyrrolo[3,2-b]pyridin-5-yl)-N-(isoquinolin-6-yl)-2-methyl-19-phenyl-5,8,11,14-tetraoxa-2,17-diazaicosan-20-amide]	25 to 50%	≥ 75%
C[C@@H]1CN(CC(=O)N2CC(C)(C)c3ncc(Cc4ccc(F)cc4)cc32)[C@@H](CN(C)CCOCCOCCOCCN[C@H](Cc2cccc(F)c2)C(=O)Nc2ccc(-c3ccncc3)cc2)CN1 [Example 10, (R)-15-(3-Fluorobenzyl)-1-((2R,5R)-1-(2-(6-(4-fluorobenzyl)-3,3-dimethyl-2,3-dihydro-1H-pyrrolo[3,2-b]pyridin-1-yl)-2-oxoethyl)-5-methylpiperazin-2-yl)-2-methyl-N-(4-(pyridin-4-yl)phenyl)-5,8,11-trioxa-2,14-diazahexadecan-16-amide]	25 to 50%	≥ 75%
COC[C@H]1CN[C@H](C)CN1CC(=O)N1CC(C)(C)c2nc(CN(C)CCOCCN[C@H](Cc3cccc(F)c3)C(=O)Nc3ccc(-c4ccncc4)cc3)c(Cc3ccc(F)cc3)cc21 [Example 29, (R)-2-((2-(2-(((6-(4-Fluorobenzyl)-1-(2-((2R,5R)-2-(methoxymethyl)-5-methylpiperazin-1-yl)acetyl)-3,3-dimethyl-2,3-dihydro-1H-pyrrolo[3,2-b]pyridin-5-yl)methyl)(methyl)amino)ethoxy)ethyl)amino)-3-(3-fluorophenyl)-N-(4-(pyridin-4-yl)phenyl)propanamide]	50 to 75%	≥ 75%
